Earlier results on 3 molecules are cited in patent US20090017139A1, “Iodine therapy dosing for treating medical conditions” (priority 2007, published 2009).

For data set [1] the following is noted: male rats, 100 days; cited from earlier work.
The conditions of data set [2]: perchlorate 6 mg i.p., 2 hr predosing; cited from earlier work.
Another data set concerns school age children. The following applies: 11 mg/d, 2.5 years later; cited from earlier work.
The conditions of data set [3]: 1.5 to more than 10 g/day for weeks at a time; cited from earlier work.

Turning to `I` [iodide, reference compound], the thyroid size entry in data set [1] is on record as “Significant increases in thyroid size”. Further, the “reduction of thyroidal uptake by perchlorate” value in data set [2] was “more than 90%”.
Turning to `[I-].[Na+]` [sodium iodide], in the data set with school age children, the incidence of goiter is reported as 0.2%.
With `[I-].[K+]` [potassium iodide], the side effects entry in data set [3] is on record as “few side effects are reported”.
